Active and inactive are the calls of the source. No cut-off for these calls is given here.
Legend:
Escherichia coli [1] = experiment: Compound was tested for half inhibition-dose of mutation frequency of UV-induced Escherichia coli WP2 B/r Trp; assay type: functional
Escherichia coli [2] = experiment: Microbicidal activity against UV-induced Escherichia coli WP2 B/r Trp at a dose of 120 ug/mL; Not active; assay type: functional, organism-based
Escherichia coli [3] = experiment: Bio-antimutagenic activity against UV-induced Escherichia coli WP2 B/r Trp; assay type: functional
Escherichia coli [4] = experiment: Microbicidal activity against UV-induced Escherichia coli WP2 B/r Trp at a dose of 150 ug/mL; Not active; assay type: functional, organism-based
Escherichia coli [5] = experiment: Bio-antimutagenic activity against UV-induced Escherichia coli WP2 B/r Trp; Not active; assay type: functional, organism-based

SMILES | AD50 (Escherichia coli [1]) [µg/mL] | Activity (Escherichia coli [2]) | AD50 (Escherichia coli [3]) [µg/mL] | Activity (Escherichia coli [4]) | AD50 (Escherichia coli [5])
CCCCCCC(O)/C=C1/CCCC1=O (stereo not given) | 79 | – | – | – | –
CCCCCCCC[C@H](O)/C=C1/CCCC1=O | – | inactive | 50 | – | –
CCCCCCCC[C@@H](O)/C=C1/CCCC1=O | – | – | – | inactive | inactive
CCCCCCCCC(O)/C=C1/CCCC1=O (stereo not given) | 6.7 | – | – | – | –
CCCCCC[C@H](O)/C=C1/CCCC1=O | – | inactive | 50 | – | –
CCCCCC[C@@H](O)/C=C1/CCCC1=O | – | – | – | inactive | inactive
